Test results as given in patent publication US7247734B2 (Vernalis (Cambridge) Limited, priority 2001, dated 2007).
Read-outs that look alike come from different tables or passages of the source.

Columns and labels:
yeast HSP90 = target: T1, yeast HSP90 (Saccharomyces cerevisiae, UniProt P02829); experiment: Malachite green HSP90 ATPase assay; type: biochemical; conditions: 1 mM ATP, ±SD if n=3–5
T1 construct: made in house; host or cells: E. coli
Summary of the method: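 E. coli-expressed yeast HSP90 ATPase activity measured as released inorganic phosphate by malachite green–molybdate colour (610 nm), with sodium citrate added to suppress non-enzymatic ATP hydrolysis. Assay buffer 100 mM Tris-HCl pH 7.4, 20 mM KCl, 6 mM MgCl2; compounds screened at 40 μM final.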

[1] = tested on: HCT116 human colon tumour cells; experiment: 96 h growth inhibition assay (SRB), HCT116; type: cell-based; conditions: Homo sapiens, HCT-116; HCT116, 96 h
Experimental: (§1) The growth inhibition assay employed was based on that described previously (Kelland et al., 1993). HCT116 and HT29 human colon tumour cells (American Tissue Culture Collection) were seeded into 96-well tissue culture plates (approximately 1600–2000 cells per well) and allowed to attach for 36 hours. Eight wells were treated with a single concentration from a range of compound concentrations and incubated for 96 hours. Cells were fixed using ice cold 10% trichloroacetic acid (TCA). Plates were then washed five times with water, air dried, and stained with 0.4% sulphorhodamine B (SRB) in 1% acetic acid for 10 minutes. The SRB stain was solubilised in 10 mM Tris-HCl and the absorbance measured at 540 nm using a Titertek Multiscan MCC/340 MKII plate reader (Flow Laboratories, IEC, Basingstoke, N.H.). The absorbance values correspond to total protein content and are used as a measure of cell growth.

[2] = tested on: HT29 human colon tumour cells; experiment: 96 h growth inhibition assay (SRB), HT29; type: cell-based; conditions: Homo sapiens, HT-29; HT29, 96 h
Experimental: as §1

T1 sequence (P02829 whole entry, looked up): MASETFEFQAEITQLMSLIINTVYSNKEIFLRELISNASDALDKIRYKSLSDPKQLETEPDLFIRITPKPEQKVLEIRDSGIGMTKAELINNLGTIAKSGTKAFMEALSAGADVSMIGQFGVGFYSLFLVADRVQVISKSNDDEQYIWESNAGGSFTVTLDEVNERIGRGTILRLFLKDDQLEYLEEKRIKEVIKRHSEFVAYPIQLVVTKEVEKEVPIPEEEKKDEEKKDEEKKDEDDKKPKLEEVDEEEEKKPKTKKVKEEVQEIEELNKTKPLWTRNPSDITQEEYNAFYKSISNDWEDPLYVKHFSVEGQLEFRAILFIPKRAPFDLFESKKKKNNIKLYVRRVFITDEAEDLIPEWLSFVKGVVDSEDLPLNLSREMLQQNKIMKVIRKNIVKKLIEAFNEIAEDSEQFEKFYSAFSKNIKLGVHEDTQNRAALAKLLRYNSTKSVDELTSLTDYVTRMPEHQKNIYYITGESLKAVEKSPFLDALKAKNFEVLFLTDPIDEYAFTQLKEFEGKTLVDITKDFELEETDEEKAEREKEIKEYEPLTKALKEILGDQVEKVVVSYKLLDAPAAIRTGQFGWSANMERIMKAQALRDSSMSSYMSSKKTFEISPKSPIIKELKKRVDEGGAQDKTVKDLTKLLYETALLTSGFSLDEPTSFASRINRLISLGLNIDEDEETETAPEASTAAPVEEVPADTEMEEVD

Row | SMILES | IC50 (yeast HSP90; malachite green assay, read-out: HSP90 ATPase inhibition IC50) | IC50 [1] | IC50 [2] | IC50 (yeast HSP90; HSP90 ATPase inhibition IC50, malachite green assay)
1 | Cc1[nH]nc(-c2ccc(O)cc2O)c1-c1ccc2c(c1)OCCO2 [CCT018157] | 60.5 ± 8 µM | 26 µM | 14 µM | 
2 | CCc1cc(-c2n[nH]c(C)c2-c2ccc3c(c2)OCCO3)c(O)cc1O [CCT018159, 4-[4-(2,3-Dihydro-benzo[1,4]dioxin-6-yl)-5-methyl-1H-pyrazol-3-yl]-6-ethyl-benzene-1,3-diol] |  | 4.5 µM | 13.5 µM | 9.2 ± 0.65 µM
